From the supplement of paper PMC10307832

How the values were obtained:
Test in all cases: relative viability (nuclei count vs DMSO), 5 days (fraction); higher = more cells survive
[1] = compound: O=C(O)c1ccc2c(c1)nc(Nc1cccc(Cl)c1)c1ccncc12 [Silmitasertib] + CC(=O)Nc1cccc(-n2c(=O)n(C3CC3)c(=O)c3c(Nc4ccc(I)cc4F)n(C)c(=O)c(C)c32)c1 [Trametinib] (partner 0.02 µM)
In short: (§1)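 Relative viability is defined as nuclei in treated wells over nuclei in vehicle wells. Duplicate plates were run and medians reported. Lung cancer cell lines in 1536-well plates were dosed by pin tool one day after seeding, with one drug or with a fixed anchor-drug dose plus five library-drug doses (not always all listed) in √10 steps, and nuclei were counted after 5 days.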

[2] = compound: O=C(O)c1ccc2c(c1)nc(Nc1cccc(Cl)c1)c1ccncc12 [Silmitasertib] + CC1(C)CCC(c2ccc(Cl)cc2)=C(CN2CCN(c3ccc(C(=O)NS(=O)(=O)c4ccc(N[C@H](CCN5CCOCC5)CSc5ccccc5)c(S(=O)(=O)C(F)(F)F)c4)cc3)CC2)C1 [Navitoclax] (partner 0.5 µM)
In short: as §1

[3] = compound: O=C(O)c1ccc2c(c1)nc(Nc1cccc(Cl)c1)c1ccncc12 [Silmitasertib] + COc1cc2c(Oc3ccc(NC(=O)C4(C(=O)Nc5ccc(F)cc5)CC4)cc3F)ccnc2cc1OCCCN1CCOCC1 [Foretinib] (partner 0.25 µM)
In short: as §1

[4] = compound: O=C(O)c1ccc2c(c1)nc(Nc1cccc(Cl)c1)c1ccncc12 [Silmitasertib] + CS(=O)(=O)CCNCc1ccc(-c2ccc3ncnc(Nc4ccc(OCc5cccc(F)c5)c(Cl)c4)c3c2)o1 [Lapatinib] (partner 2 µM)
In short: as §1

[5] = compound: O=C(O)c1ccc2c(c1)nc(Nc1cccc(Cl)c1)c1ccncc12 [Silmitasertib] + Cc1nc(Nc2ncc(C(=O)Nc3c(C)cccc3Cl)s2)cc(N2CCN(CCO)CC2)n1 [Dasatinib] (partner 0.075 µM)
In short: as §1

Cell Line	relative viability ([1]; first compound 0.04 µM)	relative viability ([1]; first compound 0.4 µM)	relative viability ([1]; first compound 1.265 µM)	relative viability ([1]; first compound 4 µM)	relative viability ([2]; first compound 0.04 µM)	relative viability ([2]; first compound 0.4 µM)	relative viability ([2]; first compound 1.265 µM)	relative viability ([2]; first compound 4 µM)	relative viability ([3]; first compound 0.04 µM)	relative viability ([3]; first compound 0.4 µM)	relative viability ([3]; first compound 1.265 µM)	relative viability ([3]; first compound 4 µM)	relative viability ([4]; first compound 0.04 µM)	relative viability ([4]; first compound 0.4 µM)	relative viability ([4]; first compound 1.265 µM)	relative viability ([4]; first compound 4 µM)	relative viability ([5]; first compound 0.04 µM)	relative viability ([5]; first compound 0.4 µM)	relative viability ([5]; first compound 1.265 µM)	relative viability ([5]; first compound 4 µM)
NCI-H3122	0.204	0.174	0.212	0.264	1.01	0.996	1.01	1.08	0.821	0.86	0.982	0.947	1.07	0.975	1.07	1.08	0.807	0.706	0.84	0.834
PC-3 [JPC-3]	0.716	0.661	0.795	0.632	0.746	0.688	0.773	0.775	1.12	0.852	1.14	0.998	0.51	0.417	0.458	0.303	1.04	0.628	1.03	0.899
PC-14	1.07		0.802	0.633	1.12	1.09	1.07	1.11	1.05	1.02	0.965	0.461	0.325	0.347	0.381	0.391	0.273	0.236	0.293	0.388
RERF-LC-KJ	0.926	0.722	0.661	0.541	0.863	0.85	0.782	0.436	0.887	0.753	0.765	0.628	0.859	0.819	0.767	0.516	0.879	0.735	0.393	0.435
SK-LU-1	0.733	0.46	0.298	0.289	0.984	0.532	0.671	0.217	0.954	0.693	0.621	0.417	0.995	0.649	0.369	0.388	0.203	0.164	0.172	0.175
SK-MES-1	0.589	0.477	0.535	0.469	1.27	1.1	1.15	0.576	1.12	0.885	0.946	0.535	0.442	0.594	0.536	0.429	0.47	0.283	0.294	0.232
SW 1573	0.529	0.54	0.478	0.439	1.07	1.02	0.824	0.815	0.882	0.801	0.744	0.202	1.1	1.07	1.11	0.67	0.624	0.516	0.576	0.451
UMC-11	0.73	0.65	0.353	0.403	0.337	0.278	0.207	0.162	1.19	1.16	1.11	0.619	1.14	0.949	0.965	0.359	0.508	0.477	0.491	0.331
